Where a SMILES comes first, the peptide text is derived from it. Bridges are numbered along the chain shown (N, C = ends).
Test system: hslo(+) human BK channel gene (ZERO isoform) expressed in slo-1(null) worms
Assay: C. elegans crawl speed, hslo(+) rescue on slo-1 null background
Format: in vivo, Caenorhabditis elegans
Conditions: 750 μM LS3, 30 min; transgenic hslo(+) on slo-1(null) background; vs. slo-1(null): p < 0.001, N = 78–162
Description: Worms were cultivated at 20 °C as described with OP50 bacteria. Worms cultured on plates contaminated with fungi or other bacteria were excluded from this study. The reference wild-type strain was N2 Bristol. The reference slo-1(null) strain and background for transgenic strains was NM1968, harboring the previously characterized null allele, js379[29]. Multi-site gateway technology (Invitrogen) was used to construct plasmids. […] of the native slo-1 promoter (Pslo-1) and the traditional unc-54 UTR were used in combination with slo-1a(cDNA)::mCherry for a rescue construct. To test rescue with the human BK channel, an hslo(ZERO isoform, cDNA)::mCherry version was constructed. The slo-1(+) and hslo(+) plasmids were injected at a concentration of 20 and 10 ng/μl, respectively. The co-injection reporter PCFJ90 (1.25 ng/μl) was used to ensure proper transformation of the arrays. As such, JPS345 carried vxEx345, an extrachromosomal array containing [Pslo-1::slo-1::mCherry::unc-54UTR,Pmyo-2::mCherry::unc-54UTR]. JPS340 carried […], an extrachromosomal array containing [Pslo-1::hslo::mCherry::unc-54UTR,Pmyo-2::mCherry::unc-54UTR].
Age-matched day one adults were cleaned of bacteria by letting them crawl around on an unseeded plate and then moved into a puddle of NGM or peptide dissolved in NGM on another unseeded plate. […]

## CC(C)C[C@@H]1NC(=O)CNC(=O)[C@H](CCCNC(=N)N)NC(=O)[C@H](CCCNC(=N)N)NC(=O)[C@@H](N)CSSC[C@@H](C(=O)O)NC(=O)[C@H](C(C)C)NC(=O)[C@H](CCC(N)=O)NC(=O)[C@H](C(C)C)NC1=O [LS3] (H-CRRGLVQVC-OH; disulfide 1-9; N-terminus and C-terminus assumed)
  LS3-induced slowing response (reduction in crawl speed): rescued the LS3-induced slowing response
